Experimental data: patent US11931373B2, “HSP90 activator AHA1 drives production of pathological tau aggregates” (University of South Florida, priority 2017, dated 2024)

Experiments:
[1] = target: T1, Aha1 and Hsp90 complexes (Homo sapiens, UniProt O95433); test: Co-immunoprecipitation of Hsp90α with Aha1 from PC3-MM2 cells; type: cell-based; conditions: 10 μM, 24 hours
T1 construct: endogenous in cells; host or cells: PC3-MM2 cells
Protocol: (§1) Co-immunoprecipitation. Co-immunoprecipitation of Hsp90α with Aha1 from PC3-MM2 and iHek P301L cells incubated with the indicated compounds for 24 hours were performed as previously described (Ghosh, et al. ACS Chem. Biol. 2015, 10, 577-590).

[2] = target: T2, binding of Aha1 to Hsp90 (Homo sapiens, UniProt O95433); test: Co-immunoprecipitation of Hsp90 with Aha1 from iHEK cells; type: cell-based; conditions: 10 μM, 24 hours
T2 construct: Immunoprecipitated Aha1 from iHEK cells treated±10 μM KU-177 for 24 hours; endogenous in cells; host or cells: iHEK-P301L cells (tetracycline-inducible P301L tau)
Protocol: (§2) Cell culture and transfection. iHek-P301L cells (Ghosh, et al. ACS Med. Chem. Lett. 2016, 7, 813-818) and luciferase expressing PC3-MM2 cells (Ghosh, et al. ACS Med. Chem. Lett. 2016, 7, 813-818) were cultured in DMEM media supplemented with 10% FBS and 1% Penicillin-Streptomycin (Invitrogen). Inducible cells were incubated with 3 μg of tetracycline for 72 h. 48 h prior to harvest, transfections were performed with 2.5 μL Lipofectamine 2000 (Invitrogen) per 1 μg of DNA, which was incubated in serum-free Opti-MEM for 5 minutes before adding the mixture dropwise to the cells. KU-177 was added 24 h prior to harvest at indicated concentrations. Cells were harvested in Tsaio TBS buffer (50 mM Tris Base, 274 mM NaCl, 5 mM KCl, pH 8.0) containing protease inhibitors. Samples were prepared as previously described (Ramsden, et al. J. Neurosci. 2005, 25, 10637-10647) to obtain soluble (S1) and sarkosyl-insoluble (P3) fractions.
as §1

[3] = system: Hsp90; test: Luciferase refolding assay in PC3-MM2 cells; type: cell-based; conditions: 2 hours; for Hsp90-mediated refolding of denatured luciferase: 0.097-100 μM; for IC50 of Hsp90-mediated luciferase refolding activity: concentrations examined 100, 25, 6.25, 1.56, 0.39 and 0.097 μM
Protocol: Luciferase refolding assay. Compound dissolved in DMSO at the indicated concentrations or a DMSO control was evaluated in a luciferase refolding assay in PC3-MM2 cells as previously described (Hall, et al. J. Med. Chem. 2016, 59, 925-933) and dose-response curves of the luminescence signal relative to DMSO control were generated using GraphPad Prism 5.0.

[4] = target: T3, Recombinant human P301L tau with Hsp90 and Aha1 (Homo sapiens, UniProt O95433); test: Thioflavin T fluorescence assay of tau fibril formation; type: biochemical; conditions: 10 μM compound vs DMSO, tau with Hsp90 alone or Hsp90 and Aha1
T3 construct: His tag (with TEV site) (N, cleaved yes); made in house; host or cells: E. coli (BL21) one-shot star, pet28a (tau and Aha1); Hsp90α was a gift from Dr. Johannes Buchner
Protocol: (§3) Protein Expression. Recombinant human P301L tau, Aha1, Aha1 E67K, p23, FKBP51, FKBP52, and CDC37 were expressed and purified. Hsp90α protein was a kind gift from Dr. Johannes Buchner. Recombinant human P301L tau, Aha1, Aha1 E67K, p23, FKBP51, FKBP52, and CDC37 were cloned into bacterial expression vector, pet28a with a His tag followed by a TEV sequence. Plasmids were transformed into E. coli (BL21) one-shot star cells and plated onto kanamycin-agar plates. Plates were grown at 37° C. for approximately 16 hours. 10 mL LB broth with kanamycin starter cultures were then inoculated with a colony and the starter culture grown for 8 hours. 1 L cultures were then inoculated at 1:100 dilution and grown to OD600 of 0.8. Cultures were induced with the addition of 1 mM IPTG and the incubator temperature was reduced to 16° C. Cultures were then grown for 14 hours. Cells were then pelleted at 3,500×g for 30 minutes and supernatant discarded. Pellets were resuspended in lysis buffer (20 mM Tris-HCl pH 8.0, 500 mM NaCl, 10 mM Imidazole with protease inhibitors) and frozen at −80° C. Bacterial pellets were then thawed and lysed by sonication. Lysates were then spun at 50,000×g for 1 hr. […]
Thioflavin T Fluorescence Assay. […] Fluorescence was read at 440 nm excitation and 482 nm emission in a BioTek Synergy H1 plate reader at indicated time points. […]

[5] = system: recombinant P301L tau fibrils; test: Transmission electron microscopy of tau fibrils; type: biochemical, human; conditions: KU-177 vs DMSO control
Protocol: as §3, with “hr. Next, the supernatant was purified by nickel affinity chromatography (Nickel Resin, Fisher #PI88222). Protein purity and expression was then checked by Coomassie stained SDS-PAGE.” for “hr.”

[6] = system: tau in iHEK-P301L cells; test: Soluble and sarkosyl-insoluble tau in iHEK-P301L cells (Western blot); type: cell-based; conditions: 10 μM
Protocol: as §2
Western blot and dot blot analysis. Cell and mouse brain tissues samples were analyzed by Western blot using 4-15% SDS gradient gels (BioRad). Antibody dilutions were 1:1000 unless otherwise stated, and all secondary antibodies were used at 1:1000 (Southern Biotech). Blots were developed using ECL (Pierce) on a LAS-4000 mini imager (GE Healthcare). For dot blots, proteins were applied onto a wet nitrocellulose membrane and dried by vacuum. […]

T1 sequence (O95433 whole entry, one chain of several): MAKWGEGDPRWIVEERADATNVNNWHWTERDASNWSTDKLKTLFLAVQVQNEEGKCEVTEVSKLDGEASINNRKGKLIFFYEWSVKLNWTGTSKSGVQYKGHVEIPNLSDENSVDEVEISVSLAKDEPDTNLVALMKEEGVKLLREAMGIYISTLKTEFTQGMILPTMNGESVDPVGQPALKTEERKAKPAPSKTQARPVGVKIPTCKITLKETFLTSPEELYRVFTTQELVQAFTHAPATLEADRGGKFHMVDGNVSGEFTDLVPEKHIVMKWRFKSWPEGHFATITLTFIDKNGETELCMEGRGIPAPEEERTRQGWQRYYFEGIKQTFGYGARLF
T3 sequence (O95433 whole entry, stated change not applied): as the sequence (O95433 whole entry, one chain of several) above

COc1cccc(-c2cc(C(=O)Nc3cc4ccc(OC(C)=O)c(OC)c4oc3=O)ccc2OC)c1 [KU-177]
Aha1 and Hsp90 complexes (immunoprecipitation of Aha1, Western blot) [1]: inhibited
binding of Aha1 to Hsp90 (immunoprecipitation of Aha1, Western blot) [2]: inhibited the binding of Aha1 to Hsp90
Hsp90-mediated refolding of denatured luciferase [3]: did not inhibit
IC50 of Hsp90-mediated luciferase refolding activity [3]: higher than the range of concentrations examined here
Recombinant P301L tau fibril formation measured by ThT fluorescence [4]: significantly reduce tau fibril formation
tau fibril formation observed by TEM [5]: robust reduction in tau fibril formation
sarkosyl-insoluble tau ([6]; iHEK-P301L cells transfected with Aha1-WT, Aha1-E67K or empty vector): reduce insoluble tau
soluble, phosphorylated tau ([6]; iHEK-P301L cells): increased soluble, phosphorylated tau

COc1cccc(-c2cc(C(=O)Nc3cc4ccc(O)c(OC)c4oc3=O)ccc2OC)c1 [KU-308]
Aha1 and Hsp90 complexes (immunoprecipitation of Aha1, Western blot) [1]: inhibited
Hsp90-mediated refolding of denatured luciferase [3]: did not inhibit
IC50 of Hsp90-mediated luciferase refolding activity [3]: higher than the range of concentrations examined here

COc1cccc(-c2cc(C(=O)Nc3cc4ccc(O[C@@H]5OC(C)(C)[C@H](OC)C(O)[C@@H]5O)c(OC)c4oc3=O)ccc2OC)c1 (stereo partly shown) [KU-174]
Aha1 and Hsp90 complexes (immunoprecipitation of Aha1, Western blot) [1]: inhibited
Hsp90-mediated refolding of denatured luciferase [3]: inhibited
